Data reported in patent US11351138B2, “Composition for use in the treatment of epilepsy” (VITAFLO INTERNATIONAL LTD, priority 2017, dated 2022).
Entries after “also recorded” stand apart in the source; their conditions may differ.

Experiments:
[1] = system: SH-SY5Y cells; assay: C10 and C8 co-incubation, C10 oxidation in SH-SY5Y cells; type: cell-based; settings: 250 μM [1-13C]C10 plus 62.5 μM unlabelled C8
Procedure: The effects of co-incubating C10 and C8 on C10 oxidation in SH-SY5Y cells were also explored. Additional stock solutions of 25 mM C8 and 100 mM [1-^13C]C10 were prepared in DMSO, sterile-filtered and stored in aliquots at −20° C. Cells were cultured and incubated for 20 h in 10% FBS-supplemented DMEM media containing 3 mM D-glucose, as previously described. Media was then removed and cells washed. Media was then replaced with 3 ml DMEM containing either 3 mM [U-^13C]glucose and vehicle control DMSO, or 3 mM unlabelled D-glucose. In each D-glucose-supplemented well, cells were treated with either a final concentration of 250 μM [1-^13C] C10, or 250 μM [1-^13C]C10 plus 62.5 μM C8, at a fixed total volume. Wells were then sealed with heavy mineral oil, cells incubated and media sampled as previously outlined.
Samples were thawed at room temperature and 100 μl 1M hydrochloric acid was injected through the septum into each vial to release CO2 from the media. Vials were centrifuged for 30 seconds at 500×g. Samples were then analysed on a GasBench II coupled to a Thermo Delta-XP isotope-ratio mass spectrometer. Ten repeat injections were carried out per sample, with d^13C/^12C ratios measured against Vienna Pee Dee Belemnite (VPDB) using a calibrated CO2 reference gas. ^13CO2/^12CO2 ratios were converted to mole percent excess using absolute molar ratio of ^13C to ^12C (0.0111796) in VPDB. […]

[2] = animal models; cited from earlier work
[3] = clinically relevant concentrations, in vitro and in vivo; cited from earlier work
[4] = cited from earlier work
[5] = target: T1, GluA2/3 AMPA receptors (Homo sapiens, UniProt P42262+P42263); assay: AMPA receptor (GluA2/3) currents in Xenopus oocytes, two-electrode voltage clamp; type: cell-based; settings: GluA2/3 in oocytes, 100 uM glutamate, total medium chain fatty acid content 1 mM
T1 construct: expressed in transfected cells; host or cells: Xenopus laevis oocytes injected with in vitro transcribed cRNA (GluA2 and GluA3, nominal 1:1)
T1 sequence (P42262 25-883 isoform P42262-2 limits assumed): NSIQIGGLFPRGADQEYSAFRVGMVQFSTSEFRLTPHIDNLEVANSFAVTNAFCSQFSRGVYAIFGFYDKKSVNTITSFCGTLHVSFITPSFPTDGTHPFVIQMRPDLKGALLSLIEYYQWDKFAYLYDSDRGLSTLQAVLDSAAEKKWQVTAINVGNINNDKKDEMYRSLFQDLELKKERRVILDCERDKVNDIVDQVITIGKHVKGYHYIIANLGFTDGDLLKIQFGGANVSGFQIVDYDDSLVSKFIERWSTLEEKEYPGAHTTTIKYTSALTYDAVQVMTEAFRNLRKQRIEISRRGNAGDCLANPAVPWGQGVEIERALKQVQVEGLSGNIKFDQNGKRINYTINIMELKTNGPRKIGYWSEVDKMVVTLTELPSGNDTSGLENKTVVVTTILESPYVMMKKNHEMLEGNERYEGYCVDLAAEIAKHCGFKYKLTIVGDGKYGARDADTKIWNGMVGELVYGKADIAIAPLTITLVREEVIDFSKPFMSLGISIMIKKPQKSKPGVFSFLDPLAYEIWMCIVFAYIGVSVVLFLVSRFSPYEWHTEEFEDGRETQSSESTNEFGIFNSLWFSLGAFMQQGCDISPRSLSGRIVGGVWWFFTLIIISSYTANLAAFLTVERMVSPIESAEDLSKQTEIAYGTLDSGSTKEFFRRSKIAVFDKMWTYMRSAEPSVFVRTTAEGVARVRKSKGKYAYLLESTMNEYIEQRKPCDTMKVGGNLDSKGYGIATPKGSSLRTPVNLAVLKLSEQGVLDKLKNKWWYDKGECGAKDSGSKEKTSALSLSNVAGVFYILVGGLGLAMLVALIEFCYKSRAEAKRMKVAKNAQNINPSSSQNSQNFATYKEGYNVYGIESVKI
T1 sequence (P42263 29-894 isoform P42263-2 limits assumed): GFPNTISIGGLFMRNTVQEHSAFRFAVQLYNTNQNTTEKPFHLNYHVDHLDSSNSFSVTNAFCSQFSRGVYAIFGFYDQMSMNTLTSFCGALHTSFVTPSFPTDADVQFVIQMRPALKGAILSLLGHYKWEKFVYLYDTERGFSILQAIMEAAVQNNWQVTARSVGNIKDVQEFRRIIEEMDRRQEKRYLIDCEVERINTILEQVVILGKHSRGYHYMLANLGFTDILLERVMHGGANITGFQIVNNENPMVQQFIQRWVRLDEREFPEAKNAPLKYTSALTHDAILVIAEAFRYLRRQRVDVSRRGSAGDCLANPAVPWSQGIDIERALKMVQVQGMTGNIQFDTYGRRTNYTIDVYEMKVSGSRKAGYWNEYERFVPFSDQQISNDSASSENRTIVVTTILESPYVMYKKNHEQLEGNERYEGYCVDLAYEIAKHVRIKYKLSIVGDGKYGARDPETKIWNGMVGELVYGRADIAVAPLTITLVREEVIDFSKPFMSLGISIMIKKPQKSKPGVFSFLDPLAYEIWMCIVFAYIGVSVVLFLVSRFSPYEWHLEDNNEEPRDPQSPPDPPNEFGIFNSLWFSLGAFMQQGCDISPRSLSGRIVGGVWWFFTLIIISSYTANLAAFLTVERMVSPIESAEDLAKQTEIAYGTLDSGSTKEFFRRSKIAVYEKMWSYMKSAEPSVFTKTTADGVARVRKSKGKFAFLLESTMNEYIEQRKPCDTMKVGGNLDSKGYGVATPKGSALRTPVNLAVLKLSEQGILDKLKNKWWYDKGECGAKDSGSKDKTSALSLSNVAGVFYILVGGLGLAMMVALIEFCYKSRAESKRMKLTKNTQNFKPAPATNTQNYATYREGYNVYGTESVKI
Procedure: The AMPA receptor (flip isoform) cDNAs inserted in a SP6 polymerase expression vector (pSP6T) were a gift from Prof Ralf Schoepfer (NPP, UCL). RNA was transcribed in vitro from Miu I linearised transcripts using the SP6 Promega RiboMax RNA synthesis kit (Madison, Wis.) according to manufacturers protocols except for the addition of 0.75 mM capping nucleotide m7G(5′)ppp(5′)G (Promega, Madison, Wis.) and 1.6 mM GTP. cRNA concentrations and integrity were estimated by the intensity of fluorescence bands in RNA denaturating gels. AMPA receptor cRNAs were mixed in a nominal 1:1 ratio and approximately 5 ng was injected per oocyte.
Xenopus laevis oocytes were purchased from the European Xenopus Resource Centre, University of Portsmouth. Stage V to VI oocytes were mechanically dissected and then subjected to gentle shaking for approximately 30-50 min at room temperature with modified Barth's solution (in mM): NaCl 88, KCl 1, NaHCO32.4, MgCb 0.82, CaCl2) 0.77, Tris-Cl 15, adjusted to pH 7.4 with NaOH (Sigma-Aldrich, UK), supplemented with 50 IU/ml penicillin and 50 μg/ml streptomycin (Invitrogen, UK) and 50 μg/ml tetracycline (Sigma-Aldrich, UK) and 1% collagenase (type 1A). […]

[6] = target: T1, GluA2/3 AMPA receptors; settings: Chang et al., Brain 2016; cited from earlier work
[7] = system: SH-SY5Y cells; assay: CPT1 inhibition assay (etomoxir), oxidation rates in SH-SY5Y cells; type: cell-based; settings: for Oxidation rate +Etomoxir / Oxidation rate −Etomoxir: 250 μM substrate, mean±SEM; for Oxidation rate +Etomoxir: 50 μM etomoxir; for Oxidation rate −Etomoxir: without etomoxir
Procedure: C16:BSA complex (5:1 molar ratio fatty acid:BSA). […] Both solutions were aliquoted and stored at −20° C. until further use.
A stock solution of 50 mM etomoxir was prepared in sterile cell culture grade water and stored in aliquots at −20° C. On day 5 of culture, growth medium was replaced with 2 ml DMEM formula containing 3 mM D-glucose and 10% FBS. Cells were incubated with or without the presence of 50 μM etomoxir, for 20 h at 37° C. and 5% CO2. […] C8 or [U-^13C] C16:BSA, with 50 μM etomoxir also added to previously exposed cells. Wells were then sealed with heavy mineral oil, with cells incubated and media sampled as previously described.
Samples were thawed at room temperature and 100 μl 1M hydrochloric acid was injected through the septum into each vial to release CO2 from the media. Vials were centrifuged for 30 seconds at 500×g. Samples were then analysed on a GasBench II coupled to a Thermo Delta-XP isotope-ratio mass spectrometer.

[8] = system: SH-SY5Y cells; type: cell-based; settings: human, 6 h, 250 μM
Procedure: SH-SY5Y cells were utilised between passages 20-24 for all experimental procedures. Cells were cultured in 1:1 Dulbecco's Modified Eagle's Medium (DMEM)/F12 media, containing 17.5 mM glucose and supplemented with 100 ml/L heat-inactivated foetal bovine serum (FBS) and 10 ml/L 200 mM L-glutamine. All cells were maintained in a humidified atmosphere at 37° C. and 5% CO2. Cells were sub-cultured by washing with 10 ml/flask Mg^2+1c a ^2+-free Dulbecco's phosphate-buffered saline (DPBS), lifted with 2 ml 0.25% trypsin-EDTA and suspended in 8 ml culture medium to inactivate the trypsin. The cell suspension was transferred to a falcon tube and centrifuged for 4 minutes at 500×g. The supernatant was removed and cells suspended in a known volume of fresh culture medium. Cells were counted using the Trypan Blue exclusion test for viability. A known volume of the cell suspension was mixed 1:1 with 0.4% Trypan Blue solution and counted with a Bio-Rad TC20™ Automated Cell Counter (Hemel Hempstead, UK). […]
Samples were thawed at room temperature and 100 μl 1M hydrochloric acid was injected through the septum into each vial to release CO2 from the media. […] Samples were then analysed on a GasBench II coupled to a Thermo Delta-XP isotope-ratio mass spectrometer. […]

[9] = system: SH-SY5Y cells; assay: Cell viability, Trypan Blue exclusion test; type: cell-based; settings: 50 μM etomoxir, 20 h + 6 h; data not shown
Procedure: Cells were incubated for 20 h at 37° C. and 5% CO2 with 50 μM etomoxir in DMEM media supplemented with 10% FBS, and then a further 6 h at 37° C. with 50 μM etomoxir in DMEM media without FBS. Cells were then lifted from wells with 1 ml 0.25% trypsin-EDTA, suspended in 4 ml culture medium and centrifuged for 4 minutes at 500×g. Supernatant was removed and cells suspended in 1 ml of fresh culture medium. Viability of cells was then tested using the Trypan Blue exclusion test.

reduction of oxidation in the presence of etomoxir ([7]; human, 6 h, 250 μM) | Oxidation rate +Etomoxir [7] | Oxidation rate −Etomoxir [7] | SMILES | anti-seizure effects [3] | concentration in peripheral blood (average) [4] | concentration in peripheral blood (range) [4] | effect on AMPA receptors / AMPA receptor currents [6] | further results
95% | – | – | CCCCCCCCCC(=O)O [decanoic acid, Decanoic acid] | acute antiseizure effects; also recorded: has anti-seizure effects | 157 µM | 87 to 552 µM | inhibits AMPA receptors | impairment of oxidation rate of C10 by C8 addition [1]: 29%; ratio in blood plasma to brain [2]: around 0.7; inhibition of AMPA receptor currents by decanoic acid:octanoic acid ratios [5]: no increase in AMPA receptor inhibition; C10 oxidation lower than that of C8 by [8]: approximately 80%
34% | – | – | CCCCCCCC(=O)O [octanoic acid, Octanoic acid] | not | around 306 μM | 104 to 859 µM | no effect on AMPA receptor currents | –
– | – | – | CCOC(=O)[C@@]1(CCCCCCOc2ccc(Cl)cc2)CO1 [etomoxir] | – | – | – | – | effect on viability of SH-SY5Y cells [9]: no effect on viability
– | 0.002 ± 0.003 nmol/h | 0.22 ± 0.05 nmol/h | [13CH3][13CH2][13CH2][13CH2][13CH2][13CH2][13CH2][13CH2][13CH2][13CH2][13CH2][13CH2][13CH2][13CH2][13CH2][13C](=O)O [[U-^13C]C16, [U-^13C]palmitic acid, reference compound] | – | – | – | – | reduction of oxidation in the presence of etomoxir ([7]; 50 μM etomoxir (CPT1 inhibition)): 99%
– | 0.75 ± 0.06 nmol/h | 1.14 ± 0.11 nmol/h | CCCCCCC[13C](=O)O [[1-^13C]C8, [1^13C]octanoic acid] | – | – | – | – | –
